Consider two compounds from patent publication EP2135604A1, “INFUSION PREPARATION FOR CANCER PATIENT” (Matsui, Hirofumi, priority 2007, dated 2008).

For test [1], the system named is rat stomach cancer cell line (RGK-37). Nature of the test: BrdU uptake (ELISA) at different glucose concentrations in the growth medium. In kind it is cell-based. The conditions noted are these: medium with 0, 0.3 or 1.3 g/L of glucose, 1%FBS, 1% L-glutamine, 24 hours, relative to 3 g/L glucose (= 1). How it is done: (§1) A rat stomach mucous membrane cell line (RGM) and a rat stomach cancer cell line (RGK-37) were cultured in Gibco#11330-032 DMEM/F12 medium and L-glutamine-free Sigma#D6421 DMEM/F12 medium, respectively. Each culture was supplemented with 10% FBS and was cultured during the logarithmic growth phase. The growth medium was then replaced with a growth medium containing 0, 0.3 or 1.3 g/L of glucose and supplemented with 1%FBS and 1% L-glutamine. After 24 hours of culturing, bromodeoxyuridine (BrdU) was added to each culture. 2 hours after the addition of BrdU, the BrdU uptake was measured by ELISA. The BrdU uptake for each culture is shown in Fig. 1 relative to the uptake obtained at a glucose concentration of 3 g/L (= 1).

Test [2] has as its system rat stomach mucous membrane cell line (RGM). The test is described as above. Format: cell-based. The conditions noted are these: medium with 0, 0.3 or 1.3 g/L of glucose, 1%FBS, 1% L-glutamine, 24 hours, relative to 3 g/L glucose (= 1). How it is done:
as §1

The test system of test [3] is tumor cell lines of rat and human stomach cancer. Nature of the test: Protein levels at decreased glucose levels in the culture medium. Format: cell-based. Particulars: human stomach cancer tumor cell line; decreasing glucose levels in the culture medium.
Test [4] relates to normal stomach mucous cell line of rat. Described as above. In kind it is cell-based.
Test [5] relates to tumor cell lines of rat and human stomach cancer. Described as above. Particulars: rat stomach cancer tumor cell line; decreasing glucose levels in the culture medium. Format: cell-based.
The subject of test [6] is rat stomach cancer cell line (RGK-37). Nature of the test: Culture in glucose-free, 3% glutamine medium, observation under a microscope. Format: cell-based. Particulars: RGK-37 tumor cells, absence of glucose, 120 hours. Here is the method: (§2) A rat stomach mucous membrane cell line (RGM) and a rat stomach cancer cell line (RGK-37) were cultured in Gibco#11330-032 DMEM/F12 medium and Sigma#D6421 DMEM/F12 medium, respectively. Each culture was cultured in the absence of glucose and in the presence of 3% glutamine for 120 hours. Subsequently, the cells were observed under a microscope.

Test [7] relates to rat stomach mucous membrane cell line (RGM). The test is described as above. Particulars: RGM non-tumor cells, absence of glucose, 120 hours. In kind it is cell-based. Here is the method: as §2
In test [8] the test system is rats infected with Helicobacter pylori. Particulars: reported by Patent Document 4; cited from earlier work.
Test [9] concerns rat stomach mucous membrane cells. Nature of the test: Chemical carcinogenesis with L-glutamine added to the growth medium. In kind it is cell-based. Particulars: addition of L-glutamine to the growth medium.

As for `OC[C@H]1OC(O)[C@H](O)[C@@H](O)[C@@H]1O` (some centres unmarked) [glucose], the BrdU uptake entry is “decreased relatively with decreasing concentrations of glucose” in test [1] and “relatively constant” in [2]. Further, the results for the protein levels entry in [3], in test [4] and in test [5] were “decreased protein levels”, “no changes” and “decreased protein levels”, respectively.

In the case of `NC(=O)CC[C@H](N)C(=O)O` [L-glutamine], the “cell survival / apoptosis (microscope)” value in test [6] was “apoptosis is induced”; in test [6] (listed as glutamine), “apoptosis was induced”. Moreover, the “cell survival (microscope)” value in test [7] is given as “can survive”; in test [7] (listed as glutamine) it was “survived”. Besides, the “onset of legions resembling stomach cancer” value in test [8] is “ability to suppress the onset of legions resembling stomach cancer”. Besides, the chemical carcinogenesis entry in test [9] is “suppresses chemical carcinogenesis”.
